Consider one compound from US20120270935A1, “FORMULATIONS” (priority 2009, published 2012).

Structures are written as SMILES.

In test [1] the test system is P. acnes NCTC 737. Kind of test: Minimum bactericidal concentration (MBC) assay. In kind it is cell-based, Propionibacterium acnes. The following applies: compound in DMSO; triplicate. How it is done: (§1) The first test micro-organism used was Propionibacterium acnes NCTC 737. This is a propionibacterial strain and is the type strain of the […]; it is fully susceptible to antibiotics.
(§2) The propionibacteria were cultured and maintained on Wilkins-Chalgren Anaerobe Medium (agar and broth) at pH 6.0; all cultures were incubated anaerobically at 37° C. for 72 hours.
(§3) This assay, normally carried out after an MIC assay, determines the minimum concentration of a compound that is lethal to the micro-organism being tested.
These samples were then individually sub-cultured on antibiotic-free agar medium, under the incubation conditions described above. Following incubation they were examined visually for microbial growth.
DDA assays, as described above, were carried out using as the test formulation the gel prepared in Example 2B above. Also tested was the Example 2B gel minus the Klucel™ thickener, which was also subjected to MIC and MBC assays. For the DDAs, which were performed in triplicate, 100 μl of the relevant formulation was loaded onto each disc, and zones of inhibition were recorded after 3 days' anaerobic incubation at 37° C. The MIC and MBC tests were performed in duplicate and the results recorded after 3 days and 7 days respectively, post-subculture onto drug-free medium.
The compounds copper (II) usnate (Just for Today Ltd), sodium usnate (Yick-Vic Chemicals) and usnic acid (Sigma-Aldrich) were tested against P. acnes NCTC 737, using MIC, MBC and DDA assays as described above. For copper usnate and usnic acid, supplemented DDA assays were also carried out. DMSO was used as the solvent for all three test compounds. For the DDAs, 200 μg of the relevant test compound was loaded onto each disc. The MIC and MBC assays were conducted in triplicate, as were the DDAs for copper usnate.

Test [2] relates to C. striatum NCTC 764. Kind of test: Disc diffusion assay (DDA). It counts as cell-based, Corynebacterium striatum. The following applies: 200 μg per disc; single plates. The source says: (§4) (a) staphylococci. The Staphylococcus aureus strain used was ATCC 29213. S. aureus and other staphylococci are common causes of a wide range of skin, skin structure and wound infections; S. aureus is also known to exacerbate eczema. The ATCC 29213 strain is known to be susceptible to beta-lactam antibiotics such as methicillin. The Staphylococcus epidermidis strain used was NCTC 11047. Staph. epidermidis forms part of the resident flora of skin and is an opportunistic pathogen which can cause biofilms to grow for instance on plastic surgical implants such as catheters. Unless otherwise stated, the staphylococci were cultured and maintained on Mueller-Hinton Medium (agar and broth) at pH 7.2; cultures were incubated aerobically at 37° C. for 19-20 hours, at pH 7 (±0.2). (b) C. striatum NCTC 764. Corynebacterium striatum is closely related to organisms (aerobic diphtheroids of the genus Corynebacterium) that cause body odour. It was cultured and maintained on Mueller-Hinton medium (agar and broth). All cultures were incubated aerobically at 37° C. for 72 hours, at pH 7 (±0.2). (c) streptococci. […]
(§5) A sterile paper disc was impregnated with a sample of the test compound in a suitable solvent and 30 minutes allowed for the solvents to evaporate (where possible). […] The diameter of this zone of “inhibition” was measured using a ProtoCOL™ automated zone sizer (Synbiosis, Cambridge, UK). […]
In general terms: Agar diffusion results depend on both activity and mobility in agar.

Test [3] deals with S. aureus ATCC 29213. In words: Disc diffusion assay (DDA). In kind it is cell-based, Staphylococcus aureus. The following applies: 200 μg per disc; Mueller-Hinton agar pH 7.0; overnight at 37° C. in air.
Text: as §4, with “streptococci. The strains tested were S. mutans ATCC 25175 and S. pyogenes ATCC 12344. S. mutans is a Gram-positive, microaerophilic bacterium which plays a significant role in dental caries and in infective endocarditis. Streptococcus pyogenes is associated with skin, soft tissue, burn and wound infections.” for “streptococci.”
as §5
(§6) Example 8 was repeated (except for the supplemented DDA assays), using S. aureus ATCC 29213 as the test organism. […] In the DDA assays, 200 μg is of each compound was loaded onto each disc: the culture medium was Mueller-Hinton agar at pH 7.0, and results were recorded after overnight incubation at 37° C. in air. […]

The subject of test [4] is P. acnes NCTC 737. Kind of test: Disc diffusion assay (DDA). It counts as cell-based, Propionibacterium acnes. The following applies: 200 μg compound per disc; DMSO. How it is done:
as §1, §2
This is an internationally recognised standard method for qualitatively assessing the antimicrobial activity of a compound.
A sterile paper disc was impregnated with a sample of the test compound in a suitable solvent and 30 minutes allowed for the solvents to evaporate (where possible). The disc was then placed on an agar plate onto which the test micro-organism had been inoculated. The plate was then incubated under the conditions described above, following which it was examined visually for signs of microbial growth. If the test compound had antimicrobial activity, a circular zone of no growth would be obtained around the disc. The diameter of this zone of “inhibition” was measured using a ProtoCOL™ automated zone sizer (Synbiosis, Cambridge, UK). In general, a greater diameter and/or area of the zone of inhibition indicates a greater antimicrobial activity in the relevant test compound, although other factors such as test compound mobility through the agar gel may also influence the result.
(§7) DDA assays, as described above, were carried out using as the test formulation the gel prepared in Example 2B above. Also tested was the Example 2B gel minus the Klucel™ thickener, which was also subjected to MIC and MBC assays. For the DDAs, which were performed in triplicate, 100 μl of the relevant formulation was loaded onto each disc, and zones of inhibition were recorded after 3 days' anaerobic incubation at 37° C. The MIC and MBC tests were performed in duplicate and the results recorded after 3 days and 7 days respectively, post-subculture onto drug-free medium. […]

Test [5] relates to P. acnes NCTC 737. In words: Minimum inhibitory concentration (MIC) assay, broth microtitre. In kind it is cell-based, Propionibacterium acnes. The following applies: compound in DMSO; triplicate. On the procedure: as §1, §2
This is a standard international method for quantitatively assessing the antimicrobial activity of a compound in a liquid medium. The method used a sterile 96-well microtitre plate, capable of holding about 200 μl of liquid per well. The wells contained liquid culture medium and ranges of decreasing concentrations of the relevant test compound in doubling dilutions (eg 1000, 500, 250, 125 . . . μg/ml, etc. down to 0.49 μg/ml). The culture medium was as described above.
The wells were inoculated with a liquid suspension of freshly grown micro-organism and incubated under the conditions described above. After incubation, the microtitre plate was examined visually (with the aid of a light box) for cloudiness in each well, which would indicate microbial growth. The MIC value was recorded as the lowest concentration of test compound required to inhibit microbial growth, ie the lowest concentration for which the liquid in the well remained clear.
The assays included both negative (culture medium with no micro-organisms) and positive (culture medium plus diluting solvent plus micro-organism) controls.
as §7

For test [6], the system named is C. striatum NCTC 764. Kind of test: MIC assay. It counts as cell-based, Corynebacterium striatum. The following applies: triplicate.
Text: as §4, with “streptococci. The strains tested were S. mutans ATCC 25175 and S. pyogenes ATCC 12344. S. mutans is a Gram-positive, microaerophilic bacterium which plays a significant role in dental caries and in infective endocarditis. Streptococcus pyogenes is associated with skin, soft tissue, burn and wound infections. S. mutans was cultured and maintained on Wilkins-Chalgren Anaerobe medium+1 g/L glucose (agar and broth); it was incubated in air at 37° C. for 48 hours, at pH 7 (±0.2) with 5% carbon dioxide.” for “streptococci.”
(§8) This is a standard international method for quantitatively assessing the antimicrobial activity of a compound in a liquid medium. […]
(§9) The wells were inoculated with a liquid suspension of freshly grown micro-organism and incubated under the conditions described above. […] The MIC value was recorded as the lowest concentration of test compound required to inhibit microbial growth, ie the lowest concentration for which the liquid in the well remained clear. […]

Test [7] has as its system S. aureus ATCC 29213. In words: MIC assay. It counts as cell-based, Staphylococcus aureus. The following applies: Mueller-Hinton broth pH 7.0.
Text: as §4, with “streptococci. The strains tested were S. mutans ATCC 25175 and S. pyogenes ATCC 12344. S. mutans is a Gram-positive, microaerophilic bacterium which plays a significant role in dental caries and in infective endocarditis.” for “streptococci.”
as §8, §9, §6

Test [8] has as its system S. aureus ATCC 29213. In words: MBC assay. It counts as cell-based, Staphylococcus aureus. The following applies: Mueller-Hinton broth pH 7.0.
Text: as §4, with “streptococci. The strains tested were S. mutans ATCC 25175 and S. pyogenes ATCC 12344. S. mutans is a Gram-positive, microaerophilic bacterium which plays a significant role in dental caries and in infective endocarditis. Streptococcus pyogenes is associated with skin, soft tissue, burn and wound infections. S. mutans was cultured and maintained on Wilkins-Chalgren Anaerobe medium+1 g/L glucose (agar and broth); it was incubated in air at 37° C. for 48 hours, at pH 7 (±0.2) with 5% carbon dioxide. S. pyogenes was cultured and maintained on Mueller-Hinton medium (broth and agar) and was incubated under the same conditions as S. mutans.” for “streptococci.”
as §6

Test [9] has as its system C. striatum NCTC 764. In words: MBC assay. The following applies: triplicate. In kind it is cell-based, Corynebacterium striatum.
Text: (a) staphylococci. The Staphylococcus aureus strain used was ATCC 29213. S. aureus and other staphylococci are common causes of a wide range of skin, skin structure and wound infections; S. aureus is also known to exacerbate eczema. The ATCC 29213 strain is known to be susceptible to beta-lactam antibiotics such as methicillin. The Staphylococcus epidermidis strain used was NCTC 11047. Staph. epidermidis forms part of the resident flora of skin and is an opportunistic pathogen which can cause biofilms to grow for instance on plastic surgical implants such as catheters. Unless otherwise stated, the staphylococci were cultured and maintained on Mueller-Hinton Medium (agar and broth) at pH 7.2; cultures were incubated aerobically at 37° C. for 19-20 hours, at pH 7 (±0.2). (b) C. striatum NCTC 764. Corynebacterium striatum is closely related to organisms (aerobic diphtheroids of the genus Corynebacterium) that cause body odour. It was cultured and maintained on Mueller-Hinton medium (agar and broth). All cultures were incubated aerobically at 37° C. for 72 hours, at pH 7 (±0.2). (c) streptococci. The strains tested were S. mutans ATCC 25175 and S. pyogenes ATCC 12344. S. mutans is a Gram-positive, microaerophilic bacterium which plays a significant role in dental caries and in infective endocarditis. Streptococcus pyogenes is associated with skin, soft tissue, burn and wound infections. S. mutans was cultured and maintained on Wilkins-Chalgren Anaerobe medium+1 g/L glucose (agar and broth); it was incubated in air at 37° C. for 48 hours, at pH 7 (±0.2) with 5% carbon dioxide. S. pyogenes was cultured and maintained on Mueller-Hinton medium (broth and agar) and was incubated under the same conditions as S. mutans.
as §3
These samples were then individually sub-cultured on antibiotic-free agar medium, under the incubation conditions described above. Following incubation they were examined visually for microbial growth. […]

On to `CC(=O)C1=C([O-])C=C2Oc3c(C(C)=O)c(O)c(C)c(O)c3[C@]2(C)C1=O.[Na+]` [Sodium usnate, sodium usnate], for which the MBC – broadly, the smallest concentration meeting the test's criterion for killing – in test [1] stood at 0.98 µg/mL; in [8] it was 250 µg/mL; in test [9] it was 125 µg/mL. In addition, the DDA zone diameter is recorded as 20.0 mm in test [2] and 15.0 mm in test [3]. The “DDA zone diameter, unsupplemented medium” value in test [4] amounted to 57.9 mm. Further, the MIC (as a rule, the least concentration at which growth counts as inhibited) in test [5] came to 0.49 µg/mL; in test [6], 3.9 µg/mL; in test [7], 7.8 µg/mL.
